Where only a bound is given, the exact number is not on record here.

Common to all, as to assay type: physicochemical
Series [1] is described as follows: complexation of ligands with ^89Zr, yield by ITLC-SG. The note with it: 7.5 nmol ligand, pH 7. As to the method:
All solutions described below were prepared with de-ionized water purified through a Chelex column prior to use. Stock solutions of ^89Zr at pH 7 were prepared as follow: to 450 μL of the ^89Zr solution in oxalic acid were added 450 μL of a 1M Na2CO3 solution and the pH was adjusted to 7 by addition of small aliquots of a 0.1 M Na2CO3 or 0.1 M HCl. 450 μL of water containing 3% bovine serum albumin were then added. To 45 μL of stock solution (˜1.3 MBq of ^89Zr in a typical experiment) were added 7.5 nmol (5 μL) of L5, L6, L7, C5, C6, or C7 in DMSO or the natural siderophore desferrioxamine B (DFB) mesylate in de-ionized water. These solutions were incubated at desired temperatures and time of reaction and analyzed by ITLC-SG using a 50 mM EDTA (ethylenediaminetetraacetic acid) solution adjusted to pH=7 in de-ionized water as eluant, and analyzed with a Typhoon 8600 scanner (GE Healthcare) in phosphorimaging mode. The percentage of the activity bound to the ligand after TLC was calculated by converting the TLC scan into a chromatogram and integrating the peak corresponding to the spot at the bottom of the TLC. Activity ratios were averaged out of a minimum of 2 TLCs for each condition. The influence of time and temperature on the complexation yield of ^89Zr by L5, L6, L7, C5, C6 and C7 and DFB is shown in Table 1. […]

Series [2] in a line: in vitro stability of ^89Zr complexes in 0.1 M sodium phosphate buffer pH 6.5. As to conditions: 0.1 M sodium phosphate buffer pH 6.5, 10% DMSO, 37° C. Here is the method:
(§1) 10 μL of each ^89Zr complex solution prepared as described above in Example 14 were incubated for 7 days in 40 μL Phosphate-Buffered Saline (PBS) (pH 7.4-10% DMSO) at 20° C., 40 μL sodium phosphate buffer (0.1 M, pH 6.5-10% DMSO) at 37° C., 40 μL human serum at 37° C., or 40 μL 50 mM EDTA (pH 7, 10% DMSO) at 37° C., respectively, and analyzed using the chromatographic system described in the above section after 1 h, 3 h, 1, 2, 3, 4, 5, 6, and 7 days.

Series [3] can be described thus: in vitro stability of ^89Zr complexes in 50 mM EDTA (challenge). The note with it: pH 7, 37° C.; for ^89Zr remaining complexed after a week: 7 days (n=4), FIG. 13. As to the method:
FIG. 13 is a graph illustrating the stability of the ^89Zr-complexes in 50 mM EDTA at pH 7 and 37° C. over 7 days (n=4).
as §1

For `O=C1CCCCCCN(O)C(=O)CCCCCCN(O)C(=O)CCCCCCN(O)C(=O)CCCCCCN1O` [Ligand C6], the “complexation yield of ^89Zr” value in series [1] (20° C., 30 min) was determined as 77%; in series [1] (20° C., 120 min), 79%; in series [1] (50° C., 30 min) it was 92%; in series [1] (80° C. (time not given)), 92%. In addition, the “Fraction of intact complex” value is 89% in series [2] (1 Day), 79% in series [2] (4 Days) and 61% in series [2] (7 Days). The “time of release of ~50% of ^89Zr” value in series [3] is reported as “a single day”. The “^89Zr remaining complexed after a week” value in series [3] amounted to 32±4%.

For `CCCCC(=O)N(O)CCCCCC(=O)N(O)CCCCCC(=O)N(O)CCCCCC(=O)N(O)CCC` [Ligand L5], the “complexation yield of ^89Zr” value in series [1] (20° C., 30 min) is given as 60%; in series [1] (20° C., 120 min), 71%; in series [1] (50° C., 30 min) it was 73%; in series [1] (80° C. (time not given)) it was 87.3%. Further, the “Fraction of intact complex” value in series [2] (1 Day) was 93%; in series [2] (4 Days) it was 89%; in series [2] (7 Days), 77%.

Consider `CC(=O)N(O)CCCCCNC(=O)CCC(=O)N(O)CCCCCNC(=O)CCC(=O)N(O)CCCCCN` [DFB, desferrioxamine B, reference compound], for which the “complexation yield of ^89Zr” value in series [1] (20° C., 30 min) was more than 99%; in series [1] (20° C., 120 min), more than 99%; in series [1] (50° C., 30 min), more than 99%; in series [1] (80° C. (time not given)), more than 99%. The figures for the “Fraction of intact complex” value in series [2] (1 Day), in series [2] (4 Days) and in series [2] (7 Days) were 99%, 98% and 98%, respectively.

Take `CCCCCC(=O)N(O)CCCCCCC(=O)N(O)CCCCCCC(=O)N(O)CCCCCCC(=O)N(O)CCC` [Ligand L6]: the “complexation yield of ^89Zr” value in series [1] (20° C., 30 min) was 82%; in series [1] (20° C., 120 min), 95%; in series [1] (50° C., 30 min), 96%; in series [1] (80° C. (time not given)) it was more than 99%. The “Fraction of intact complex” value is 97% in series [2] (1 Day), 94% in series [2] (4 Days) and 94% in series [2] (7 Days).

Turning to `O=C1CCCCCN(O)C(=O)CCCCCN(O)C(=O)CCCCCN(O)C(=O)CCCCCN1O` [Ligand C5], the “complexation yield of ^89Zr” value is on record as 17% in series [1] (20° C., 30 min); 22% in series [1] (20° C., 120 min); 23% in series [1] (50° C., 30 min); 29% in series [1] (80° C. (time not given)). For the same compound, the entries for the “Fraction of intact complex” value in series [2] (1 Day), in series [2] (4 Days) and in series [2] (7 Days) were 69%, 46% and 42%, respectively. The “time of release of ~50% of ^89Zr” value in series [3] is on record as “within the first minutes”. The “^89Zr remaining complexed after a week” value in series [3] is given as “nearly none”.

With `CCCCCCC(=O)N(O)CCCCCCCC(=O)N(O)CCCCCCCC(=O)N(O)CCCCCCCC(=O)N(O)CCC` [Ligand L7], the “complexation yield of ^89Zr” value is given as 88% in series [1] (20° C., 30 min); more than 99% in series [1] (20° C., 120 min); more than 99% in series [1] (50° C., 30 min); more than 99% in series [1] (80° C. (time not given)). Moreover, the “Fraction of intact complex” value in series [2] (1 Day) was found to be 99%; in series [2] (4 Days) it was 98%; in series [2] (7 Days), 98%.

Regarding `O=C1CCCCCCCN(O)C(=O)CCCCCCCN(O)C(=O)CCCCCCCN(O)C(=O)CCCCCCCN1O` [Ligand C7], the “complexation yield of ^89Zr” value in series [1] (20° C., 30 min) is 92%; in series [1] (20° C., 120 min), more than 99%; in series [1] (50° C., 30 min), more than 99%; in series [1] (80° C. (time not given)), more than 99%. The “Fraction of intact complex” value in series [2] (1 Day) is given as more than 99%; in series [2] (4 Days), 99%; in series [2] (7 Days), 99%. Besides, the “^89Zr remaining complexed after a week” value in series [3] worked out at 87±3%.

(Values after patent US10137212B2, “Tetrahydroxamate chelators of zirconium89 and niobium90 for use in diagnostic applications” (priority 2013, dated 2018).)
